What all share (format): functional
In test [1] the test system is Mycobacterium tuberculosis. Briefly: AntiMycobacterium tuberculosis activity Replicating form: Average MIC90 (uM).
Test [2] deals with Mycobacterium tuberculosis. As to the kind of experiment: AntiMycobacterium tuberculosis activity 2-week GAST/Fe MIC (uM). To be noted: 336 h.
In test [3] the test system is Mycobacterium tuberculosis. As to the kind of experiment: AntiMycobacterium tuberculosis activity 2-week 7H9/ADC/Tw MIC (uM). The conditions noted are these: 336 h.
The subject of test [4] is Mycobacterium tuberculosis. Briefly: AntiMycobacterium tuberculosis activity day 21 MIC99 in 7H9/2.5mM butyrate/pH6/0.1mM nitrite MIC99 (uM). The conditions noted are these: 504 h.
In test [5] the test system is Mycobacterium tuberculosis. As to the kind of experiment: AntiMycobacterium tuberculosis activity 1-week GAST/Fe MIC (uM). The conditions noted are these: 168 h.
Test [6] deals with Mycobacterium tuberculosis. As to the kind of experiment: (§1) AntiMycobacterium tuberculosis activity day 10 in 7H9/2.5mM butyrate/pH6/0.1mM nitrite MIC90 (uM). The conditions noted are these: 240 h.
In test [7] the test system is Mycobacterium tuberculosis. Briefly: AntiMycobacterium tuberculosis activity 2-week Alamar Blue 7H9/cholesterol/BSA/Tx MIC (uM). To be noted: 336 h. On the technique in general: The colour change of resazurin is a common sign of viable cells or microbes.
Test [8] relates to HepG2. Briefly: HepG2 CC50 (uM) Cytotoxicity. The conditions noted are these: Homo sapiens.
Test [9] has as its system Mycobacterium tuberculosis. Briefly: AntiMycobacterium tuberculosis activity 1-week 7H9/cholesterol/BSA/Tx MIC (uM). To be noted: 168 h.
In test [10] the test system is Mycobacterium tuberculosis. Briefly: AntiMycobacterium tuberculosis activity day 21 in 7H9/2.5mM butyrate/pH6/0.1mM nitrite MIC90 (uM). The conditions noted are these: 504 h.
Test [11] has as its system Mycobacterium tuberculosis. As to the kind of experiment: AntiMycobacterium tuberculosis activity 2-week Alamar Blue 7H9/ADC/Tw MIC (uM). The conditions noted are these: 336 h.
Test [12] concerns Mycobacterium tuberculosis. The test is described as §1. To be noted: 240 h. The source holds these as a separate data set.
The subject of test [13] is Mycobacterium tuberculosis. Briefly: AntiMycobacterium tuberculosis activity Non-Replicating form: Average MIC90 (uM).
The test system of test [14] is Mycobacterium tuberculosis. As to the kind of experiment: AntiMycobacterium tuberculosis activity 2-week 7H9/DPPC/cholesterol/BSA/Tx MIC (uM). To be noted: 336 h.
The test system of test [15] is Mycobacterium tuberculosis. Briefly: AntiMycobacterium tuberculosis activity 1-week 7H9/ADC/Tw MIC (uM). To be noted: 168 h.
Test [16] concerns Mycobacterium tuberculosis. As to the kind of experiment: AntiMycobacterium tuberculosis activity 1-week 7H9/glucose/BSA/Tx MIC (uM). The conditions noted are these: 168 h.
The test system of test [17] is Mycobacterium tuberculosis. Briefly: AntiMycobacterium tuberculosis activity 1-week 7H9/DPPC/cholesterol/BSA/Tx MIC (uM). The conditions noted are these: 168 h.
For test [18], the system named is Mycobacterium tuberculosis. As to the kind of experiment: AntiMycobacterium tuberculosis activity 2-week 7H9/glucose/BSA/Tx MIC (uM). The conditions noted are these: 336 h.

≈ marks a conversion by molar mass, not a printed value.

As usually defined, the MIC90 is the lowest concentration that inhibits either 90% of growth or 90% of the strains tested, depending on the study. Lower therefore signals greater potency. By MIC is commonly meant the lowest concentration found to suppress growth. Broadly, the CC50 is the concentration giving 50% cytotoxicity. A lower CC50 goes with harm at low concentration. Turning to `N#Cc1nc(-c2ccccc2)oc1S(=O)(=O)c1ccc(Cl)cc1`, the MIC90 is 2.59 µM (≈ 0.893 µg/mL) in test [1]; > 50 µM in test [6]; 12.5 µM (≈ 4.31 µg/mL) in test [10]; 6.25 µM (≈ 2.15 µg/mL) in [12]; 0.41 µM (≈ 0.141 µg/mL) in test [13]. Also, the MIC was 0.6 µM (≈ 0.207 µg/mL) in [2]; 6.25 µM (≈ 2.15 µg/mL) in [3]; > 50 µM in test [4]; 0.6 µM (≈ 0.207 µg/mL) in test [5]; 12.5 µM (≈ 4.31 µg/mL) in [7]; 6.25 µM (≈ 2.15 µg/mL) in test [9]. The MIC in [11] amounted to 6.25 µM (≈ 2.15 µg/mL); in test [14], 12.5 µM (≈ 4.31 µg/mL); in test [15] it was 3.13 µM (≈ 1.08 µg/mL); in [16], 3.13 µM (≈ 1.08 µg/mL); in test [17], 6.25 µM (≈ 2.15 µg/mL); in [18] it was 6.25 µM (≈ 2.15 µg/mL). The compound also registered a cytotoxic concentration (CC50) in test [8] of 2.2 µM.
Consider `Cc1ccc2nc(Cl)c(CNCc3cccs3)cc2c1`, for which the MIC90 in test [1] was > 100 µM; in test [6], > 50 µM; in test [10], > 50 µM; in test [12], > 50 µM; in test [13] it was 93.7 µM (≈ 28.4 µg/mL). For the same compound, the MIC was 1.56 µM (≈ 0.472 µg/mL) in [2]; > 50 µM in test [3]; > 50 µM in [4]; 0.78 µM (≈ 0.236 µg/mL) in test [5]; 37 µM (≈ 11.2 µg/mL) in test [7]; 19 µM (≈ 5.75 µg/mL) in test [9]. The MIC in [11] is 50 µM (≈ 15.1 µg/mL); in test [14], > 50 µM; in [15] it was > 50 µM; in [16], > 50 µM; in [17], 12.5 µM (≈ 3.79 µg/mL); in test [18], > 50 µM. For the same compound, in test [8], the CC50 was > 100 µM.
As for `CCCn1c(CNc2ccccc2O)nc2ccccc21`, the MIC90 in test [1] is 12.7 µM (≈ 3.57 µg/mL); in test [6], > 50 µM; in test [10] it was 6.25 µM (≈ 1.76 µg/mL); in test [12] it was 3.12 µM (≈ 0.878 µg/mL); in [13] it was 7.04 µM (≈ 1.98 µg/mL). For the same compound, the MIC was 1.56 µM (≈ 0.439 µg/mL) in test [2]; 9.4 µM (≈ 2.64 µg/mL) in test [3]; > 50 µM in [4]; 1.56 µM (≈ 0.439 µg/mL) in test [5]; 6.25 µM (≈ 1.76 µg/mL) in [7]; 6.25 µM (≈ 1.76 µg/mL) in test [9]. Further, the MIC in test [11] was 6.25 µM (≈ 1.76 µg/mL); in [14], 6.25 µM (≈ 1.76 µg/mL); in test [15], 9.4 µM (≈ 2.64 µg/mL); in test [16], 12.5 µM (≈ 3.52 µg/mL); in test [17] it was 6.25 µM (≈ 1.76 µg/mL); in test [18] it was 12.5 µM (≈ 3.52 µg/mL). Further, the 50% cytotoxic concentration (CC50) in [8] turned out to be 84.1 µM.
`O=C1O[C@@H](CO)CN1c1cc(F)c(C2=CCN(Cc3ccccc3)CC2)c(F)c1`: the MIC90 in [1] is 11.6 µM (≈ 4.65 µg/mL); in test [6] it was > 50 µM; in test [10] it was 50 µM (≈ 20 µg/mL); in [12] it was 50 µM (≈ 20 µg/mL); in test [13] it was 19 µM (≈ 7.6 µg/mL). Besides, the MIC was 9.4 µM (≈ 3.76 µg/mL) in test [2]; 4.7 µM (≈ 1.88 µg/mL) in test [3]; > 50 µM in test [4]; 9.4 µM (≈ 3.76 µg/mL) in test [5]; 4.7 µM (≈ 1.88 µg/mL) in test [7]; 4.7 µM (≈ 1.88 µg/mL) in test [9]. Also, the minimal inhibitory concentration (MIC) is 3.13 µM (≈ 1.25 µg/mL) in test [11]; 9.4 µM (≈ 3.76 µg/mL) in [14]; 4.7 µM (≈ 1.88 µg/mL) in test [15]; 4.7 µM (≈ 1.88 µg/mL) in [16]; 9.4 µM (≈ 3.76 µg/mL) in test [17]; 4.7 µM (≈ 1.88 µg/mL) in [18]. In addition, the 50% cytotoxic concentration (CC50) in [8] came to 38.8 µM.
For `CNc1snc(C)c1C(=O)NCCOc1ccc(OC)cc1`, the MIC90 was > 100 µM in test [1]; 6.25 µM (≈ 2.01 µg/mL) in test [6]; 50 µM (≈ 16.1 µg/mL) in [10]; 6.25 µM (≈ 2.01 µg/mL) in test [12]; 19.8 µM (≈ 6.36 µg/mL) in test [13]. The minimal inhibitory concentration (MIC) in [2] was 0.78 µM (≈ 0.251 µg/mL); in test [3], > 50 µM; in test [4], 50 µM (≈ 16.1 µg/mL); in test [5], 0.2 µM (≈ 0.0643 µg/mL); in test [7], 3.13 µM (≈ 1.01 µg/mL); in test [9], 3.13 µM (≈ 1.01 µg/mL). Further, the MIC in test [11] was 12.5 µM (≈ 4.02 µg/mL); in test [14] it was 50 µM (≈ 16.1 µg/mL); in [15] it was > 50 µM; in test [16], 50 µM (≈ 16.1 µg/mL); in test [17], 19 µM (≈ 6.11 µg/mL); in [18], > 50 µM. For the same compound, in [8], the CC50 is > 100 µM.
Consider `c1coc(CNc2nc(N3CCCCC3)nc3ccccc23)c1`, for which the MIC90 in test [1] turned out to be 8.41 µM (≈ 2.59 µg/mL); in test [6] it was 12.5 µM (≈ 3.85 µg/mL); in test [10], 25 µM (≈ 7.71 µg/mL); in test [12], 12.5 µM (≈ 3.85 µg/mL); in test [13], 27.8 µM (≈ 8.58 µg/mL). In addition, the MIC in test [2] turned out to be 9.4 µM (≈ 2.9 µg/mL); in test [3], 25 µM (≈ 7.71 µg/mL); in [4], 25 µM (≈ 7.71 µg/mL); in [5], 9.4 µM (≈ 2.9 µg/mL); in test [7], 6.25 µM (≈ 1.93 µg/mL); in [9], 4.7 µM (≈ 1.45 µg/mL). Moreover, the MIC in [11] worked out at 25 µM (≈ 7.71 µg/mL); in test [14] it was 9.4 µM (≈ 2.9 µg/mL); in test [15], 19 µM (≈ 5.86 µg/mL); in test [16], 6.25 µM (≈ 1.93 µg/mL); in [17], 6.25 µM (≈ 1.93 µg/mL); in test [18] it was 12.5 µM (≈ 3.85 µg/mL). Moreover, the half-maximal cytotoxic concentration (CC50) in [8] came to 18.6 µM.
